Assay results taken from patent US20110218229A1, “SIRT1 Modulation of Adipogenesis and Adipose Function” (priority 2003, published 2011).

How the values were obtained:
[1] = system: SIRT1; assay: SIRT1 expression in transformed 3T3-L1 fibroblasts (Western Blot); format: cell-based, mouse; conditions: for SIRT1 expression level versus control fibroblasts: Western Blot, actin control
Protocol: Samples of inguinal, epididymal, and retroperitoneal WAT were taken from the mice and subjected to Western Blot analyses using actin as a control to determine if SIRT1 was expressed in each of the three samples. Protein samples were prepared from WAT adipocytes by lysis in RIPA buffer supplemented with protease inhibitors. Twenty micrograms of protein were resolved in 9% SDS-PAGE and transferred to nitrocellulose membranes. SIRT1 protein was probed with mSIRT1 antibody (Upstate Inc.) and detected by ECL (Amersham). An actin antibody (Santa Cruz) was used in the Western Blot as a control. Pronounced SIRT1 expression levels were detected in each of the three WAT samples.
(§1) 3T3-L1 fibroblasts were transformed through standard techniques with either a pBABE control vector (“control fibroblasts”) or a vector comprising pBABE-mSIRT1 cDNA (“mSIRT1 cDNA fibroblasts”). Western Blot analyses of SIRT1 expression by the control and mSIRT1 cDNA fibroblasts were performed using antibodies and actin control as in Example 1.
(§2) 3T3-L1 fibroblasts were transformed with either a pSUPER control vector (“control fibroblasts”), a vector comprising pSUPER-mSIRT1 RNAi WT (SEQ ID NO: 24) (“mSIRT1 RNAi WT fibroblasts”), or pSUPER-mSIRT1 RNAiMUT (SEQ ID NO: 25), (“mSIRT1 RNAiMUT fibroblasts”). Western Blot analyses of SIRT1 expression by the control, mSIRT1 RNAi WT, and mSIRT1 RNAiMUT fibroblasts were performed using antibodies and actin controls as in Example 1.
Retroviral infection was performed as described in Tontonoz et al. (1994) Cell 79:1147. Phoenix cells were transfected with either pBABE, pBABE-Sirt1, pSUPERretro (Oligoengine), pSUPERretro-Sirt1 RNAi (5′-GATGAAGTTGACCTCCTCA-3′, SEQ ID NO:24) or pSUPER-NCoR RNAi (5′-GCTGCATCCAAGGGCCATG-3′, SEQ ID NO:25) using Lipofectamine (Invitrogen). After 48 h of transfection, the medium containing retroviruses was collected, filtered, treated by polybrene (1 μg ml^−1) and transferred to 3T3-L1 target cells. Infected cells were selected with puromycin (2.5 μg ml^−1) for 7 days.

[2] = system: 3T3-L1 adipocytes; assay: Fat content by staining in fully differentiated 3T3-L1 cells; format: cell-based, mouse
Protocol: (§3) We fully differentiated 3T3-L1 cells and subsequently (12 days after induction) applied the Sirt1 activator resveratrol over a wide range of concentrations. […] To validate further these visual results, we measured triglyceride content and free fatty acid (FFA) release in these cells.
(§4) To stimulate adipogenesis and accumulation of lipids in cells, medium was supplemented to confluent cells (day 0) with 2 μM insulin or 10^−7M rosiglitazone (Alexis Biochemicals), as stated in the text, 1 μM dexamethasone, and 0.25 mM isobuthylmethylxanthine (IBMX) for 2 days. The cells were then incubated with insulin or 10^-7 M rosiglitazone, changing the medium every second day. Fat accumulation was visualized by staining of lipids with Oil red O. Intracellular triglyceride levels were measured in cell lysates by an enzymatic method using a reagent kit from Boehringer Mannheim.

[3] = system: 3T3-L1 adipocytes; assay: Triglyceride content in fully differentiated 3T3-L1 cells; format: cell-based, mouse; conditions: control cells
Protocol: as §3, §4

[4] = system: primary rat white adipocytes; assay: FFA release triggered by adrenalin in primary white adipocytes; format: cell-based; conditions: with adrenalin
Description: To determine whether Sirt1 stimulates fat mobilization in bona fide adipocytes, we cultured primary rat white adipocytes and activated fat mobilization with the known β-adrenergic inducer adrenalin. […] In a converse experiment using these rat adipocytes, we addressed whether inhibition of Sirt1 would blunt the mobilization of fat by adrenalin. Addition of the known Sirt1 inhibitor nicotinamide 16 indeed reduced the release of FFA triggered by adrenalin. The above findings indicate that Sirt1 not only represses the differentiation program of adipocytes, but also activates the mobilization of fat in fully differentiated cells.
Cell culture, retroviral infection and transfection. 3T3-L1, HEK293, 293T and Phoenix cells (ATCC, Rockville, Md.) were cultured in Dulbecco's modified Eagle's medium with 10% FCS, and antibiotics. Primary adipocytes from Sprague-Dawley rats were prepared as described previously 25. Transfections for luciferase assays were done as described using pSPORT6-PPAR-γ2, pGL3-PPRE26 and pcDNA3-Sirt1. Data were corrected for transfection efficiency.

[5] = system: UCP1; assay: UCP1 expression in BAT cells; format: cell-based
Description: Further observations were made. A mouse genetically deficient for SIRT1 activity cannot regulate body temperature in the cold. The mouse appears unable to induce the UCP1 gene or related transcriptional programs. We used chromatin immunoprecipitations to characterize genes which may include regulatory sequences that are directly or indirectly bound by SIRT1. We discovered that, at least in brown fat cells, the UCP1 promoter is bound by SIRT1. SIRT1 responds to stress and activates UCP1 transcription. At least in part, the transcriptional activation is a result of the PGC1 co-factor, which is present in BAT cells, but absent in WAT cells, PGC1 modifies SIRT1 from a repressor to an activator. PGC1, SIRT1, and PPARγ are able to form a ternary complex which functions as a transcriptional activator. SIRT1 may have a similar function in other cells that express PGC1, e.g., muscle and liver cells. Moreover, resveratrol increases UCP1 expression in BAT cells.

[6] = system: 3T3-L1 adipocytes; assay: Free fatty acid (FFA) release in fully differentiated 3T3-L1 cells; format: cell-based, mouse
Protocol: as §3
Wild-type FVB male age-matched (12-16 weeks old) mice were used for the present studies. Sirt1+/+ and Sirt1+/− genotypes have been described previously 21. All mice were housed under controlled temperature (25±1° C.) and lighting conditions. Food provided was normal chow. All mice were cared for in accordance with the MIT animal care committee. Blood was collected from the retro-orbital sinus and kept on ice until centrifugation (1,500 g, 15 min at 4° C.), and the plasma was stored at −20° C. until analysis. All animals were killed by decapitation. WAT depots were collected, weighed and quickly frozen in liquid nitrogen and stored at −70° C. until further processing by immunoblotting. Non-esterified free fatty acids were determined by enzymatic assays (Wako Pure Chemical Industries).

[7] = system: 3T3-L1 fibroblasts; assay: 3T3-L1 adipogenesis / differentiation (Oil Red O staining); format: cell-based, mouse
Protocol: The 3T3-L1 mouse fibroblasts used in this example, and in Examples 4-10 hereinafter, were prepared in accordance with standard protocol as follows. 3T3-L1 cells (ATCC CL-173, Rockville, Md.) were grown to confluence (day 0) in medium A (Dulbecco's modified Eagle's Medium with 10% fetal calf serum, 100 units/ml penicillin, and 100 μg/ml streptomycin). Confluent cell were incubated in medium A containing 2 μM insulin, 1 μM dexamethasone, and 0.25 mM isobuthyl methyl xanthine for two days. Thereafter, confluent fibroblasts were treated with insulin for five days and at the end of such treatment were in a condition for functional study. Adipogenesis was evaluated by analysis of the expression of adipocyte-specific markers and by staining of lipids with Oil Red O (Chawla & Lazar, 1994, Proc. Natl. Acad. Sci. USA 91, 1786-1790).
as §1, §2
as §4, with “The cells were then incubated with insulin or 10^-7 M rosiglitazone, changing the medium every second day.” left out

[8] = system: 3T3-L1 fibroblasts; assay: Intracellular triglyceride levels in transformed 3T3-L1; format: cell-based, mouse; conditions: day 7, Folch extraction, six wells per condition
Protocol: Fibroblast intracellular trigylceride (“TG”) levels should decrease upon inhibition of fibroblast differentiation resulting from overexpression of SIRT1. Consistent with Examples 4 and 5, it should be possible to measure in a quantitative manner the amount of intracellular triglycerides that can be observed by Oil Red O staining. To do so, 3T3-L1 fibroblasts were prepared as in Example 3 and transformed as in Examples 4 and 5 with either pBABE control vector (“pBABE control fibroblasts”), pBABE-mSIRT1 cDNA (“mSIRT1 cDNA fibroblasts”), pSUPER control vector (“pSUPER control fibroblasts”), or pSUPER-mSIRT1 RNAi WT (SEQ ID NO: 24) (“mSIRT1 RNAi WT fibroblasts”).
At day 7, the cells were lysed in methanol and neutral lipids were extracted by the Folch method and resuspended in isopropanol. Triglyceride levels were measured by calorimetric methods using a commercial kit (Trig/GB #450032, Roche Diagnostics, Indianapolis, Ind.). Six wells per condition were analyzed.

[9] = system: 3T3-L1 cells; assay: Mitotic divisions after induction (BrdU incorporation) in 3T3-L1; format: cell-based, mouse
Description: We evaluated whether the mammalian Sir2 orthologue, Sirt1, senses nutrient availability in WAT and mediates corresponding effects on fat accumulation. To probe whether Sirt1 may actually modulate adipogenesis, we used mouse 3T3-L1 fibroblasts as an in vitro model. Adipogenesis in these cells is promoted by the nuclear receptor PPAR-γ. Upon induction of adipogenesis by insulin, dexamethasone and isobutylmethylxanthine, we observed that Sirt1, protein levels increased and peaked at day 5 after hormonal stimulation. […] 3T3-L1 cells undergo one or two mitotic divisions after induction as a prelude to terminal differentiation.

[10] = system: C/EBPβ, C/EBPδ, C/EBPα, PPARγ, aP2; assay: Adipogenesis transcription factor levels in 3T3-L1 (Western Blot, semi-quantitative RT-PCR); format: cell-based, mouse
Protocol: 3T3-L1 fibroblasts were transformed through standard techniques with either a pBABE control vector (“control fibroblasts”) or a vector comprising pBABE-mSIRT1 cDNA (“mSIRT1 cDNA fibroblasts”) in accordance with Example 4. Protein and total RNA was extracted from the differentiated cells. Western Blot analyses of levels of the PPARγ and C/EBPα transcription factors present in the protein extracts from the control and mSIRT1 cDNA fibroblasts were performed using antibodies and actin control as in Example 1.
Semi-quantitative RT-PCR analysis was also conducted to determine levels of the C/EBPβ, C/EBPδ, C/EBPα, PPARγ transcription factors and aP2 (PPARγ target gene) present in the protein and total RNA extracted from the control and mSIRT1 cDNA fibroblasts. In this analysis, GAPDH was used as an internal control for cDNA input in the PCR.
3T3-L1 fibroblasts were transformed through standard techniques with either a pSUPER control vector (“control fibroblasts”) or a vector comprising pSUPER-mSIRT1 RNAiWT ([…]) (“mSIRT1 RNAiWT fibroblasts”) in accordance with Example 5. Protein and total RNA was extracted from the differentiated cells. […]
Semi-quantitative RT-PCR analysis was also conducted to determine levels of the C/EBPβ, C/EBPδ, C/EBPα, PPARγ, and aP2 (PPARγ target gene) present in the protein and total RNA extracted from the control and mSIRT1RNAiWT fibroblasts. […]

[11] = system: 3T3-L1 fibroblasts; assay: Isoproterenol-induced lipolysis in 3T3-L1 (fatty acid concentration); format: cell-based, mouse; conditions: day 7, isoproterenol (10^−5M), four hours; controls 0.627 mM (pBABE) and 0.508 mM (pSUPER)
Protocol: The amount of fat generated by adipocyte lipolysis should be proportional to the fat content of the adipocyte. In the experiment of this example, four samples of 3T3-L1 fibroblasts were prepared essentially as in Example 3 (except for the change in protocol noted below), and transformed as in Examples 4 and 5 with either pBABE control vector (“pBABE control fibroblasts”), pBABE-mSIRT1 cDNA (“mSIRT1 cDNA fibroblasts”), pSUPER control vector (“pSUPER control fibroblasts”), or pSUPER-mSIRT1 RNAi WT (SEQ ID NO: 24) (“mSIRT1 RNAi WT fibroblasts”).
Fatty acid concentrations in each of the four samples were measured four hours later and the results of these measurements are shown in FIG. 1. Six wells were used for each of the four samples. Results from the different wells were averaged.

mSIRT1 RNAiMUT: mutation of mSIRT1 RNAiWT, 5′-GATGAAGTCGACCTCCTCA-3′ (SEQ ID NO: 25) (expressed or natural sequence)
SIRT1 expression level versus control fibroblasts [1]: comparable with those of the control fibroblasts | SIRT1 expression level versus control fibroblasts ([1]; listed as SIRT1 mRNAi-mut): no effect on SIRT1 expression

Oc1ccc(/C=C/c2cc(O)cc(O)c2)cc1 [resveratrol, 3,5,4′-trihydroxy-tans-stilbene]
fat content after staining ([2]; cells in which Sirt1 levels were knocked down): no drug-mediated fat reduction | fat content after staining ([2]; fully differentiated 3T3-L1 cells, 12 days after induction, 50 and 100 μM resveratrol): strong reduction in fat | triglyceride content [3]: reduced | release of FFA triggered by adrenalin [4]: greatly stimulated | UCP1 expression [5]: increases | release of FFA ([6]; Sirt1 knockdown cells): but not in the Sirt1 knockdown cells | release of FFA ([6]; control cells): stimulated

NC(=O)c1cccnc1 [nicotinamide]
release of FFA triggered by adrenalin [4]: reduced

mSIRT1 RNAi WT: pSUPER vector with RNAi sequence 5′-GATGAAGTTGACCTCCTCA-3′ (SEQ ID NO: 24), interferes with SIRT1 expression
change of Sirt1 gene expression ([1]; retroviral infection of 3T3-L1 cells): downregulation (sevenfold) | fat / triglyceride accumulation versus control vector ([7]; Oil red O staining after 7 days of differentiation or intracellular triglyceride content): significant increase in triglyceride accumulation | differentiation by Oil Red O staining versus control fibroblasts ([7]; transformed 3T3-L1 fibroblasts): marked increase in differentiation | TG levels versus respective control [8]: higher | mitotic divisions after induction [9]: occurred normally | PPARγ levels versus control fibroblasts ([10]; Western Blot of extracts from differentiated cells): Higher levels of PPARγ | levels of C/EBPβ, C/EBPδ, C/EBPα, PPARγ and aP2 ([10]; semi-quantitative RT-PCR, GAPDH internal control): increased levels of all of the assayed transcription factors except C/EBPβ | lipolysis level (fatty acid concentration) [11]: 0.727 mM

NCoR RNAi: pSUPER-NCoR RNAi virus, 5′-GCTGCATCCAAGGGCCATG-3′
reduction of fat accretion by Sirt1 overexpression ([7]; Sirt1-overexpressing 3T3-L1 fibroblasts infected with NCoR RNAi virus): largely prevented
